For 28 compounds, TGI and GI50 results are on record in PubChem BioAssay (NCI).

Holding throughout (assay): growth of human tumour cells (NCI), 48 h
In test [1] the test system is HL-60(TB) leukemia.
Test [2] relates to HT29 colon.
Test [3] deals with KM12 colon.
Test [4] relates to MOLT-4 leukemia.
In test [5] the test system is NCI-H226 lung.
For test [6], the system named is SF-268 CNS.
The test system of test [7] is SN12C renal.
Test [8] concerns UACC-257 melanoma.
Test [9] has as its system MDA-MB-231 breast.
Test [10] deals with T-47D breast.

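Step 1: Grow cells in 96-well plates. Step 2: Expose to compound for 48 hours at 5 concentrations. Step 3: Interpolate endpoints linearly; if unreached, use highest concentration. GI50 is the concentration that inhibits growth by half. TGI is the concentration that stops growth completely.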

As for `CC(C)N1CC2CC(CN(C(=O)c3ccc(Cl)cc3)C2)C1`, the TGI in test [1], in test [2], in [3], in test [4], in test [5] and in test [6] was over 100 µM in each case. In addition, the TGI in [7] and in test [8] was over 100 µM each time.

In the case of `OC1OCC(COc2cc(Cl)c(Cl)cc2Cl)OC1O` (centres undefined), the TGI was 90.9 µM in test [1]; over 100 µM in test [2]; over 100 µM in test [3]; over 100 µM in [4]; over 100 µM in [5]; over 100 µM in test [6]. Also, the TGI in test [7] and in test [8] was over 100 µM in each case.

Take `Cc1cc(OCc2ccc(C(F)(F)F)cc2)c2c(c1)C(=O)C=C(NCCN1CCCC1)C2=O`: the GI50 is 1.71 µM in test [1]; 1.94 µM in test [2]; 4.39 µM in test [3]; 3.03 µM in test [4]; 14.6 µM in [5]; 1.97 µM in test [6]. Further, the figures for the GI50 in test [7] and in test [8] were 9.86 µM and 1.67 µM, respectively. Also, the TGI was determined as 4.08 µM in test [1]; 5.01 µM in [2]; 15.4 µM in test [3]; 10.1 µM in [4]; 35.2 µM in [5]; 4.24 µM in [6]. The TGI in [7] is 28.3 µM; in test [8] it was 3.27 µM.

Take `[N-]=[N+]=C(C(=O)CN1CCCC1=O)S(=O)(=O)c1ccccc1`: the TGI in test [1], in test [2], in test [3], in [9], in test [4] and in test [5] was over 100 µM in each case. The TGI in test [6], in test [7] and in test [8] was over 100 µM throughout.

As to `O=C1c2ccccc2C(=O)N1CC#CCO`, the TGI in test [1], in test [2], in test [3], in test [4], in test [5] and in test [6] was over 100 µM each time. For the same compound, the TGI in test [7] and in test [8] was over 100 µM each time.

For the compound `O=C(CC12C3C4C1C1C2C3C41CC(=O)NO)NO` (centres undefined), the TGI was 86.2 µM in test [1]; 88.7 µM in [2]; over 100 µM in test [3]; over 100 µM in test [4]; 94.3 µM in test [5]; over 100 µM in test [6]. Moreover, the values for the TGI in test [7] and in test [8] were over 100 µM and 64.3 µM, respectively.

Regarding `CSc1ccc(N2C(=O)C3c4[nH]c5ccccc5c4C4CCC(C(C)(C)C)CC4C3C2=O)cc1` (centres undefined), the TGI in [1] was 31.1 µM; in [2] it was over 100 µM; in test [3], over 100 µM; in test [4], 31.7 µM; in [5] it was 42.9 µM; in test [6] it was 45.4 µM. Also, the TGI in [7] is 35.9 µM; in test [8] it was over 100 µM.

As to `CCCCCCC(=O)NC1=C(N2CC2)C(=O)C(NC(=O)CCCCCC)=C(N2CC2)C1=O`, the GI50 in test [1] is 3.17 µM; in test [2] it was 2.94 µM; in test [3], 3.12 µM; in test [9] it was 3.89 µM; in test [5] it was over 100 µM; in test [6] it was 2.23 µM. The GI50 in test [10] was 3.45 µM. Besides, the TGI in test [1], in test [2], in test [3], in test [9], in [5] and in test [6] was over 100 µM throughout. The compound also had a TGI in [10] of over 100 µM.

Turning to `CCOC(=O)C1=C(Nc2ccc(OC)cc2)C(N)=NC1=N`, the GI50 was 3.51 µM in test [1]; 2.9 µM in test [2]; 2.64 µM in [3]; 4.02 µM in test [9]; 4.38 µM in [4]; 7.87 µM in test [6]. Besides, the GI50 in test [7] was 5.14 µM; in [10], over 100 µM; in [8], over 100 µM. Also, the TGI in test [1], in [2], in [3], in test [9], in [4] and in [6] was over 100 µM in each case. Also, the TGI in test [7], in test [10] and in [8] was over 100 µM in each case.

Consider `O=C1CCC2(O)c3ccccc3C2Cc2ccccc21` (centres undefined), for which the TGI in test [1], in test [2], in test [3], in test [4], in test [5] and in test [6] was over 100 µM each time. Besides, the TGI in test [7] and in test [8] was over 100 µM in each case.

Take `COc1ccc(C(C2=C(O)CC(C)OC2=O)C2=C(O)CC(C)OC2=O)cc1` (centres undefined): the TGI in test [2], in test [3], in test [4], in test [5], in [6] and in test [7] was over 100 µM in each case. The same compound had a TGI in test [8] of over 100 µM.

On to `COc1ccc(N=NC2=C(O)CCC2=O)cc1`, for which the TGI in test [1], in test [2], in test [3], in [4], in [5] and in test [6] was over 100 µM each time. The TGI in test [7] and in [8] was over 100 µM in each case.

Take `C=CCc1c(O)c(C(=O)/C=C/c2ccc(Cl)cc2)c(OC)c2ccoc12`: the GI50 in [2] was 1.89 µM; in test [3] it was 3.72 µM; in [9], 4.3 µM; in [4] it was 2.61 µM; in [5] it was 1.52 µM; in [6], 3.25 µM. Also, the GI50 was 4.96 µM in test [7], 3.29 µM in [10] and 2.39 µM in test [8]. The TGI in test [2] is 3.98 µM; in [3], 13 µM; in [9], 16.8 µM; in [4] it was over 100 µM; in test [5], 2.97 µM; in test [6], 12 µM. Besides, the figures for the TGI in test [7], in test [10] and in test [8] were 16.9 µM, 19 µM and 6.62 µM, respectively.

As to `CC1(C)CC(=O)C(CC2C(=O)CCCC2=O)C(=O)C1`, the TGI in test [1], in test [2], in test [3], in [4], in [5] and in [6] was over 100 µM in each case. For the same compound, the TGI in [7] and in test [8] was over 100 µM each time.

In the case of `CCO/C=C\C12CCCC1NC(c1ccccc1)(c1ccccc1)O2` (centres undefined), the TGI is 45.2 µM in test [1]; 57.8 µM in test [2]; over 100 µM in test [3]; 46 µM in test [4]; over 100 µM in test [5]; over 100 µM in [6]. Moreover, the results for the TGI in test [7] and in test [8] were 78.3 µM and 85.5 µM, respectively.

As for `CCC(O)CCCCCCCCCCCCCCC(=O)O` (centres undefined), the TGI in test [1] is 80 µM; in test [2], over 100 µM; in [3], over 100 µM; in test [4], over 100 µM; in [5], over 100 µM; in test [6], over 100 µM. Further, the TGI in test [7] and in test [8] was over 100 µM throughout.

For the compound `CC12CCC(C1)C(C)(C)C2OC(=O)c1ccccc1N` (centres undefined), the TGI in [1] is 28.6 µM; in test [2] it was 29.1 µM; in test [3], 38 µM; in test [9], 30.2 µM; in [4] it was 25.1 µM; in [6], 31.6 µM. Also, the figures for the TGI in [7], in test [10] and in test [8] were 31.7 µM, 32.1 µM and 29 µM, respectively.

As for `O=C(Nc1ccc(Br)cc1)C(=O)C(C(=O)c1ccc(Cl)c(Cl)c1)C1OC(=O)c2ccccc21` (centres undefined), the TGI in [1] is over 100 µM; in test [2], 45 µM; in test [3], 31.8 µM; in test [4] it was over 100 µM; in test [5], 20.6 µM; in test [6] it was 21.4 µM. Moreover, the values for the TGI in test [7] and in [8] were 68.3 µM and 38.9 µM, respectively.

`COc1cc(/C=C2\[C@@H]3NC(Cc4c(OC)c(C)c(OC)c(OC)c43)C(=O)N2Cc2ccccc2)c(OC)c(C)c1OC`: the TGI in test [1] is 62.8 µM; in test [2], 68.1 µM; in [3], over 100 µM; in test [4] it was 94 µM; in test [5] it was over 100 µM; in [6], over 100 µM. The TGI in [7] and in test [8] was over 100 µM each time.

`O=C(NC1CCC[C@H]1OC(=O)c1ccccc1)c1ccccc1` (some centres undefined): the TGI in test [1] was over 100 µM; in test [2] it was over 100 µM; in test [3] it was over 100 µM; in [4] it was over 100 µM; in test [5], 96.1 µM; in test [6] it was over 100 µM. In addition, the TGI in [7] and in test [8] was over 100 µM each time.

Turning to `Cc1cc(-c2ccccc2)nc(Nc2cc3ccccc3[nH]2)n1`, the TGI in [1], in test [2], in test [3], in test [4], in test [5] and in test [6] was over 100 µM in each case. Further, the TGI in test [7] and in [8] was over 100 µM each time.

On to `NC(=O)NNC/C(Cl)=C(\Cl)C(=O)O`, for which the TGI in test [1], in test [2], in test [3], in [4], in test [5] and in test [6] was over 100 µM each time. Moreover, the TGI in [7] and in test [8] was over 100 µM throughout.

Regarding `Cc1ccc(NC(=O)COc2ccc(Cl)cc2)cc1Cl`, the TGI in test [2] is over 100 µM; in test [3] it was over 100 µM; in test [9], 59.7 µM; in test [4] it was over 100 µM; in test [5], over 100 µM; in test [6], over 100 µM. For the same compound, the TGI in test [7], in test [10] and in test [8] was over 100 µM each time.

`CCCCCCCCCC1CC(=O)OC2=C1C(=O)CCC2` (centres undefined): the TGI in test [1], in test [2], in [3], in test [4], in test [5] and in [6] was over 100 µM throughout. For the same compound, the TGI in [7] and in [8] was over 100 µM throughout.

For the compound `CC(=O)C(CN1C(=O)c2ccccc2C1=O)C(C)=O`, the TGI in test [2], in [9], in test [5], in test [6], in test [7] and in [10] was over 100 µM throughout. Also, the TGI in test [8] was over 100 µM.

As for `C/C(=N\N=C(N)N)C(CN1CCOCC1)C(c1ccccc1)c1c(O)c2ccccc2oc1=O` (centres undefined), the TGI in test [1], in test [2], in test [3], in test [4], in test [5] and in test [6] was over 100 µM in each case. The TGI in test [7] and in [8] was over 100 µM throughout.

In the case of `C=CC1=C(C)C(/C=c2\[nH]/c(=C/c3[nH]c(CC4NC(=O)C(C)/C4=C\C)c(C)c3CCC(=O)O)c(CC(=O)O)c2C)=NC1=O` (centres undefined), the TGI in [1], in test [2], in test [3], in [4], in test [5] and in test [6] was over 100 µM each time. For the same compound, the TGI in test [7] and in [8] was over 100 µM each time.

In the case of `CC1C(c2ccccc2)N(C)C(c2ccccc2)C(C)C1(O)c1ccccc1` (centres undefined), the TGI in test [1], in test [2], in [3], in test [4], in [5] and in test [6] was over 100 µM in each case. Also, the TGI in test [7] and in test [8] was over 100 µM each time.
